The values below come from PMC6533141 (Chemical biology & drug design, 2019).

Structures are written as SMILES.

A word on the IC50: it is the concentration at which inhibition is half-maximal.

The target in one test is T1, HAT1 (Homo sapiens, UniProt O14929).
T1 sequence (O14929 20-341): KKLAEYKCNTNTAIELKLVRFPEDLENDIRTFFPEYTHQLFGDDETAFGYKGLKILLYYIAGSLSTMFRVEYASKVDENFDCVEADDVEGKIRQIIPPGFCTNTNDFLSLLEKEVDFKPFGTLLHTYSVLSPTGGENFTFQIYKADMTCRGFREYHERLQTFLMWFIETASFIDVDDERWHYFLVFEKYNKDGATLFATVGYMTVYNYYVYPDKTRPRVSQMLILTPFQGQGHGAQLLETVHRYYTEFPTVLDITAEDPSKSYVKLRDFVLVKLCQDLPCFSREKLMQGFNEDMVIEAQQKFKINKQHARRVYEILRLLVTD
Briefly: Scintillation proximity assay. Format: biochemical. The conditions noted are these: SPA, 40 nM HAT1, […] H4-20 BTN, 1 µM [3H]AcCoA, 30°C, 20 min; for Ki: calculated from Kiapp (Equation 2); for IC50: calculated from Kiapp (Equation 3).

A further test relates to p300. The note with it: cited from earlier work.

On to `CC(C)(COP(=O)(O)OP(=O)(O)OC[C@H]1O[C@@H](n2cnc3c(N)ncnc32)[C@H](O)[C@@H]1OP(=O)(O)O)[C@@H](O)C(=O)NCCC(=O)NCCS` [CoA], for which, at HAT1, the Ki is 14.6 µM and the IC50 is 41.5 µM.

With `CC(=O)N[C@@H](CCCCNC(=O)CSCCNC(=O)CCNC(=O)[C@H](O)C(C)(C)COP(=O)(O)OP(=O)(O)OC[C@H]1O[C@@H](n2cnc3c(N)ncnc32)[C@H](O)[C@@H]1OP(=O)(O)O)C(N)=O` [Lys-CoA, Ac-Lys(CoA)-NH2], the IC50 in the test with p300 is 0.5 µM; at HAT1, 74.9 µM. The Ki on p300 (previous study) is 0.019 µM; at HAT1, 26.2 µM.
